# Legend:
# [1] = biological target: Hck (Homo sapiens, UniProt P08631); assay: In vitro kinase assay, Hck; type: biochemical; details: read-out: IC50 Hck, Table 1, triplicate or quadruplicate
# [2] = biological target: Src F278H (Gallus gallus, UniProt P00523, F278H); assay: In vitro kinase assay, c-Src F278H kinase domain; type: biochemical; details: read-out: IC50 Src F278H; Table 2; kinase domain construct
# [3] = biological target: Src E280V (Gallus gallus, UniProt P00523, E280V); assay: In vitro kinase assay, c-Src E280V kinase domain; type: biochemical; details: read-out: IC50 Src E280V; Table 2; kinase domain construct
# [4] = biological target: Src F382V (Gallus gallus, UniProt P00523, Y382V); assay: In vitro kinase assay, c-Src 382V kinase domain; type: biochemical; details: read-out: IC50 Src F382V; Table 2; kinase domain construct
# [5] = biological target: Src T338I (Gallus gallus, UniProt P00523, T338I); assay: In vitro kinase assay, c-Src T338I kinase domain; type: biochemical; details: read-out: IC50 Src T338I; Table 2; kinase domain construct
# [6] = tested on: parental Ba/F3 cells; assay: Growth of parental Ba/F3 control cells; type: cell-based; details: 48 hours, media containing IL-3; up to highest concentration tested (5 μM)
# [7] = tested on: BCR-ABL-induced phosphorylation of CrkL; assay: BCR-ABL-induced phosphorylation of CrkL in Ba/F3 cells; type: cell-based; details: Ba/F3 cells expressing native and mutant isoforms of BCR-ABL; data not shown
# Sequence of Hck (P08631 whole entry, species assumed, the tested form may be a part): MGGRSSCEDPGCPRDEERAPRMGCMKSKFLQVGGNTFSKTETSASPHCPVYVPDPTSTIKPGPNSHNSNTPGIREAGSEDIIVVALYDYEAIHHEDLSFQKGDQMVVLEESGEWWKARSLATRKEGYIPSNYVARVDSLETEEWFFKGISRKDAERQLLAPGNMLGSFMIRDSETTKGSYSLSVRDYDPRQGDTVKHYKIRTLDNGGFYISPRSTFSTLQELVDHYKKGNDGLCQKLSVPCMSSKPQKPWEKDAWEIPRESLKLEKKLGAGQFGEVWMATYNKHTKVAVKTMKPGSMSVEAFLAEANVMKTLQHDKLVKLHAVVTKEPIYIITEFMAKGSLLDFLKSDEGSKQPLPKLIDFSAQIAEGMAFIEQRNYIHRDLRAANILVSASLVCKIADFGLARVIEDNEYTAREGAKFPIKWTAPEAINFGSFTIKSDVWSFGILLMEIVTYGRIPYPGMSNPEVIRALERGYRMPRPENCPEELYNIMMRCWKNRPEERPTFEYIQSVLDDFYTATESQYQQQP
smiles,measurement,setting,value
COc1ccc(Nc2ncnc(-c3cccnc3Nc3cc(NC(=O)c4ccc(CN5CCN(C)CC5)cc4)ccc3C)n2)cc1 [DSA8],IC50,[1],6.6 ± 2.3 nM
same,IC50,[2],7 ± 2 nM
same,IC50,[3],4 ± 1.2 nM
same,IC50,[4],4.4 ± 1.7 nM
same,IC50,[5],18 ± 6 nM
same,Growth of parental Ba/F3 control cells,[6],minimally affected
same,BCR-ABL-induced phosphorylation of CrkL,[7],block
